Laboratory results published in patent publication US12595289B2, “Therapeutic agent for breast cancer comprising BIG3-PHB2 interaction-inhibiting peptide derived from PHB2” (TOKUSHIMA UNIVERSITY, priority 2018, dated 2026).

What was measured:
[1] = system: Human breast cancer cell line MDA-MB-231; experiment: Combination assay on MDA-MB-231; assay type: cell-based; settings: MDA-MB-231, each peptide at respective IC50, 96 hours
Method: MDA-MB-231 cells were seeded into 48-well plates at a cell density of 1×10^4 cells/200 μL in well. 48 hours later, the medium in each well was exchanged to media supplemented with PHB2 peptide 11-22aa (added concentration: IC50 value), PHB2 peptide 76-90aa (added concentration: IC50 value) and a mixed solution of both peptides (added concentration: respective IC50 value), respectively, or to a medium supplemented with phosphate buffered saline (PBS) as a negative control. After culture for another 96 hours, the cell growth level was measured using the Cell Counting Kit-8 (Dojindo, Kumamoto, Japan). The data obtained was used to calculate relative values based on the growth level when PBS was added, and the graph was produced.

[2] = system: Normal mammary gland epithelial cell line MCF-10A; experiment: Growth assay on normal mammary gland epithelial cells MCF-10A; assay type: cell-based; settings: MCF-10A, 10 μM each peptide, 24 hours
Method: (§1) Growth assay on MCF-7 was carried out by seeding cells into 48-well plates (2×10^4 cells/200 μL). First, on the next day after seeding, the medium was changed to phenol red-free DMEM/F12 (Thermo Fisher Scientific) supplemented with 10% FBS, 1% Antibiotic/Antimycotic solution, 0.1 mM NEAA, 1 mM sodium pyruvate, and 10 μg/mL insulin. 24 hours later, the cells were treated with 10 nM 17β-estradiol (estrogen, Sigma) alone or with 10 nM estrogen and a PHB2 sequence-derived peptide. Growth assay on MCF-10A was carried out by seeding cells into 48-well plates (2×10^4 cells/200 μL). 24 hours after seeding, PHB2 sequence-derived peptide was added. Growth assays were carried out using the Cell Counting Kit-8 (CCK-8) (Dojindo, Kumamoto, Japan). The data are shown by mean±standard deviation of three independent experiments.

[3] = system: Human breast cancer cell line MCF-7; experiment: Estrogen (E2)-dependent growth assay on MCF-7; assay type: cell-based; settings: MCF-7, 10 μM peptide alone, 10 nM estrogen, after 96 hours
[4] = system: Human breast cancer cell line MCF-7; experiment: Estrogen (E2)-dependent growth assay on MCF-7; assay type: cell-based; settings: MCF-7, 10 μM each peptide, 10 nM estrogen, 24 hours
Method: as §1
PHB2 peptides 11-21aa and 76-88aa were cross-linked by three types of cross-linking methods (FIG. 10A: hexafluorobenzene cross-linking, decafluorobiphenyl cross-linking, and disulfide cross-linking) to prepare cross-linked PHB2 peptides (stapled PHB2 peptides) (FIG. 10B), and the suppressive effects of these peptides on estrogen-dependent growth were examined. In the experiment, breast cancer cells MCF-7 were seeded, 10 μM each PHB2 peptide and 10 nM estrogen were added after 48 hours, and the cell number was evaluated after another 24 hours by MTT assay.

[5] = system: Human breast cancer cell line MDA-MB-231; settings: 96 h
Method: MDA-MB-231 cells were seeded into 48-well plates at a cell density of 1×10^4 cells/200 μL in well. […] Data were obtained from three independent experiments, a graph (mean±standard deviation) was produced using a graphing and data analyzing software SigmaPlot (Systat Software, San Jose, CA, USA), and the 50% inhibition concentration (IC50) of the peptide against cell growth was calculated.

[6] = system: PHB2 (Ser39) phosphorylation; experiment: Ser39 phosphorylation of PHB2 in MCF-7 by Western blotting; assay type: cell-based, Human; settings: MCF-7, 10 μM each peptide, 10 nM estrogen, 24 hours (FIG. 2C)
Method: (§2) For immunoblot analyses, after performing SDS-PAGE, the membranes blotted with proteins were blocked with 4% BlockAce solution (Dainippon Pharmaceutical, Osaka, Japan) for 3 hours and then incubated to react for 12 hours with antibodies against BIG3 (1:1,000), PHB2 (1:1,000) (Abcam, Cambridge, UK) and phosphorylated PHB2 (Ser39, Scrum, Tokyo, Japan). After allowing interaction with HRP-labeled secondary antibodies (anti-rat IgG-HRP for BIG3, 1:5,000; and anti-rabbit IgG-HRP for PHB2 and phosphorylated PHB2, 1:1,000) (Santa Cruz Biotechnology, Dallas, TX, USA) for 1 hour, the blots were developed with the Enhanced Chemiluminescence (ECL) system (GE Healthcare, Buckinghamshire, UK) and scanned using the Image Reader LAS-3000 mini (Fujifilm, Tokyo, Japan).

[7] = biological target: T1, interaction between BIG3 and PHB2 (Homo sapiens, UniProt Q5TH69); experiment: Inhibition of BIG3-PHB2 binding in MCF-7, immunoprecipitation with anti-BIG3 antibody and Western blotting; assay type: cell-based; settings: MCF-7 (FIG. 3B)
T1 construct: endogenous in cells; host or cells: MCF-7 (human breast cancer cell line)
T1 sequence (Q5TH69 whole entry): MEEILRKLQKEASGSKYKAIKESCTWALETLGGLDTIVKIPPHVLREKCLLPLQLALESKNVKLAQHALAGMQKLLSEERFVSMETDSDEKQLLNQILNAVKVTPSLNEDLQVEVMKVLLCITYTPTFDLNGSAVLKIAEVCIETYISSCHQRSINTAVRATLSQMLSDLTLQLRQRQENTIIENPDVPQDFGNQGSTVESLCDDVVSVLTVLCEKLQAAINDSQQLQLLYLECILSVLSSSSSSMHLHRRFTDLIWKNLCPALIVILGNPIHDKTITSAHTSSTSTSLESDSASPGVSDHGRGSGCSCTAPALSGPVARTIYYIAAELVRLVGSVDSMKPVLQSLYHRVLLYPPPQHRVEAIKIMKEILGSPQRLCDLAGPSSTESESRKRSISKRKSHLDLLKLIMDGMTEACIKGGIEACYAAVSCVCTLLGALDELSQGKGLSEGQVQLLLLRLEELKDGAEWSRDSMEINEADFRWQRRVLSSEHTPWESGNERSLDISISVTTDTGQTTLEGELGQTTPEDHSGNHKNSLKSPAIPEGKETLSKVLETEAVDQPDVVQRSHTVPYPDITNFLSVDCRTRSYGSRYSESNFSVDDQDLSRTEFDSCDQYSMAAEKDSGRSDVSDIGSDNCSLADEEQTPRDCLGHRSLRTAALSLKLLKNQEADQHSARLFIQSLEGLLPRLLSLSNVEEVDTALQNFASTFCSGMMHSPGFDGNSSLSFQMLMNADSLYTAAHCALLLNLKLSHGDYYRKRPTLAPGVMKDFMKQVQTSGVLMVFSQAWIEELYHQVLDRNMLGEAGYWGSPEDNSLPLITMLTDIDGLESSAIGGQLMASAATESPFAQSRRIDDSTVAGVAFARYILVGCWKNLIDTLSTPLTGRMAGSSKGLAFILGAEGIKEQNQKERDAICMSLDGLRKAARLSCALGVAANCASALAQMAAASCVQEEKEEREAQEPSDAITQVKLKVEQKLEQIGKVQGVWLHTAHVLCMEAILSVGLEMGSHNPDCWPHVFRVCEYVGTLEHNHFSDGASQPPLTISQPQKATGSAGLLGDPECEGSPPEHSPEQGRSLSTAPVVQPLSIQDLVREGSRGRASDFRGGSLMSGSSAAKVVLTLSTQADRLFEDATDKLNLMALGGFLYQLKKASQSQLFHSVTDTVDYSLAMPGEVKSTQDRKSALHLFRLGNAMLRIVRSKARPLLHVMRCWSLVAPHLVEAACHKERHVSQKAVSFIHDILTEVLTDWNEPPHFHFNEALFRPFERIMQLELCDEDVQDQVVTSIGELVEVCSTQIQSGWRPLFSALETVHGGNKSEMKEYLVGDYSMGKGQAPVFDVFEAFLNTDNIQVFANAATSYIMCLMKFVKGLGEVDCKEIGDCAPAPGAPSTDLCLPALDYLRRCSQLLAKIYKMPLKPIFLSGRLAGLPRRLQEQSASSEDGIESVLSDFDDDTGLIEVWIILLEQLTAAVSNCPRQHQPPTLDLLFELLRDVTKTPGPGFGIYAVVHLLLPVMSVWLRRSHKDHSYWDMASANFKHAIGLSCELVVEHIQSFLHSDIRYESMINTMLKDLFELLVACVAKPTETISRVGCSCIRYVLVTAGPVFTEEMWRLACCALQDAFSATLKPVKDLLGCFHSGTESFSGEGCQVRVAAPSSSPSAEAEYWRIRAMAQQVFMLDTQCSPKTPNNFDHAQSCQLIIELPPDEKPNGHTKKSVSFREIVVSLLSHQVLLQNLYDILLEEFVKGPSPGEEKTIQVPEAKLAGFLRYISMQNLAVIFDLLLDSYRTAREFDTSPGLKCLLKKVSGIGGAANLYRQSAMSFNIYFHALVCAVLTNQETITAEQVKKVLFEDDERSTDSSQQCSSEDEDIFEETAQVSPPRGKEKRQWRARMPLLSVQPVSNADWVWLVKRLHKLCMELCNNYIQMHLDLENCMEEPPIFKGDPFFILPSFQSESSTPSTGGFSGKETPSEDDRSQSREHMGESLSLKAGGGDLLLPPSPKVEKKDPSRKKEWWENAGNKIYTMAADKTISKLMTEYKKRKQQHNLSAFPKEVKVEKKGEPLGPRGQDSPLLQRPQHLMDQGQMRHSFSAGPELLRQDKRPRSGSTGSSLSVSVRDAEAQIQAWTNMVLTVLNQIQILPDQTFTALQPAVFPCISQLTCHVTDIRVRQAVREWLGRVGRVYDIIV
Method: as §2
For immunoprecipitation, MCF-7 was seeded into 10 cm dishes (2×10^6 cells/10 mL), and like cell growth assay, MCF-7 was treated with 10 nM estrogen alone or with 10 nM estrogen and PHB2 sequence-derived peptide. For immunoprecipitation analysis, cell lysates lysed in a cell lysis buffer (50 mM Tris-HCl; pH 8.0, 150 mM NaCl, 0.1% NP-40, and 0.5% CHAPS; 0.1% protease inhibitor cocktail III) were pre-cleared with a rat IgG antibody and rec-Protein G Sepharose 4B (Thermo Fisher Scientific) at 4° C. for 3 hours. Then, the supernatants were incubated for reaction with 5 μg of an antibody against BIG3 at 4° C. for 12 hours. […]

| IC50 [5] [nM] | Molecule | suppression of growth compared to PBS [1] | inhibition ratio of MCF-10A growth [2] | suppression ratio of E2-dependent growth [3] [%] | suppression ratio of E2-dependent growth ([4]; listed as 76-90aa) [%] | suppression ratio of E2-dependent growth ([4]; listed as PHB2 (76-90aa)) [%] | band intensity of Ser39 phosphorylation of PHB2 compared to ERAP treatment [6] [%] | suppression ratio of E2-dependent growth ([4]; listed as 11-22aa) [%] | suppression ratio of E2-dependent growth ([4]; listed as PHB2 (11-22aa)) [%] | suppression ratio of E2-dependent growth ([4]; listed as SEQ ID NO: 1) | inhibition of the binding between BIG3 and PHB2 [7] |
| --- | --- | --- | --- | --- | --- | --- | --- | --- | --- | --- | --- |
| 273 | CC[C@H](C)[C@H](NC(=O)[C@H](CC(=O)O)NC(=O)[C@H](Cc1ccc(O)cc1)NC(=O)[C@@H](NC(=O)[C@@H](NC(=O)[C@@H]1CCCN1C(=O)[C@H](Cc1ccc(O)cc1)NC(=O)[C@@H](N)CCC(N)=O)[C@@H](C)CC)[C@@H](C)CC)C(=O)N[C@@H](CCCNC(=N)N)C(=O)N[C@@H](C)C(=O)N[C@@H](CCCNC(=N)N)C(=O)N1CCC[C@H]1C(=O)N[C@@H](CCCNC(=N)N)C(=O)N[C@@H](CCCCN)C(=O)N[C@H](C(=O)N[C@@H](CCCNC(=N)N)C(=O)N[C@@H](CCCNC(=N)N)C(=O)N[C@@H](CCCNC(=N)N)C(=O)N[C@@H](CCCNC(=N)N)C(=O)N[C@@H](CCCNC(=N)N)C(=O)N[C@@H](CCCNC(=N)N)C(=O)N[C@@H](CCCNC(=N)N)C(=O)N[C@@H](CCCNC(=N)N)C(=O)O)[C@@H](C)CC [No. 5] | about 50% | no effect on growth | 24 | 61 | 51 | 20 |  |  |  |  |
| 462 | CSCC[C@H](NC(=O)CNC(=O)[C@H](CCCNC(=N)N)NC(=O)[C@@H]1CCCN1C(=O)CNC(=O)[C@H](C)NC(=O)[C@@H]1CCCN1C(=O)[C@H](CC(C)C)NC(=O)[C@@H](N)CCCNC(=N)N)C(=O)NCC(=O)N[C@H](C(=O)N[C@@H](C)C(=O)N[C@@H](CCCNC(=N)N)C(=O)N[C@@H](CCCNC(=N)N)C(=O)N[C@@H](CCCNC(=N)N)C(=O)N[C@@H](CCCNC(=N)N)C(=O)N[C@@H](CCCNC(=N)N)C(=O)N[C@@H](CCCNC(=N)N)C(=O)N[C@@H](CCCNC(=N)N)C(=O)N[C@@H](CCCNC(=N)N)C(=O)O)[C@@H](C)O [No. 1] | about 50% | no effect on growth | 31 |  |  | 40 | 40 | 63 | about 65% |  |
|  | 11-90aa: PHB2 peptide of 11-90aa comprising the two regions of No. 1 and No. 5; 80 amino acids (PHB2 derived peptide 11-90aa, PHB2 peptide of 11-90aa comprising the two regions of No. 1 and No. 5; 80 amino acids) RLPAGPRGMGTALKLLLGAGAVAYGVRESVFTVEGGHRAIFFNRIGGVQQDTILAEGLHFRIPWFQYPIIYDIRARPRKI |  |  |  |  |  |  |  |  |  | did not provide a sufficient effect of inhibiting the binding |
